{"source": "patent US20230203058A1", "about": "“MACROCYCLIC DIAMINE DERIVATIVES AS ENT INHIBITORS FOR THE TREATMENT OF CANCERS, AND COMBINATION THEREOF WITH ADENOSINE RECEPTOR ANTAGONISTS” (ITEOS BELGIUM SA, priority 2020, published 2023)", "system": "stimulated primary human T cells", "assay": "T cell proliferation assay (rescue of proliferation in presence of ATP, CFSE dilution)", "type": "cell-based", "conditions": "100 uM ATP", "description": "The aim of this study was to determine the potency of equilibrative nucleoside transporter 1 (ENT1) inhibitors to rescue proliferation by stimulated primary human T cells incubated in the presence of 100 uM Adenosine triphosphate (ATP), in baseline conditions (condition A) or in the presence of various proteins known to bind small molecules (condition B). Condition A: X-VIVO15 Condition B: X-VIVO15, 2% Human Serum Albumine (HSA) and 0,1% α-1-Acid Glycoprotein (AAG)\nCryopreserved purified human CD3+ T cells were thawed and washed twice with RPMI1640 medium, UltraGlutamine containing 10% hiFBS.\nCells were suspended in PBS containing 10% hiFBS. Cells were stained with CFSE by adding 2 µM solution in PBS, to get a final 1 µM CFSE solution. Cells were incubated while rotating for 5 minutes. Reaction was stopped by adding PBS with 10% FBS and cells were centrifuged for 5 minutes at 1500 rpm.\nCells were resuspended at 1.6 ×10^6 cells/mL, either in X-VIVO15 medium or in 4% Human Serum Albumin and 0,2% α-1-Acid Glycoprotein. 50 µL of cell suspension (8×10^4 T cells) was added to wells of sterile round-bottom 96-well plates. Cells were activated by adding 50 µL of anti-CD3 anti-CD28 coated microbeads, suspended either in XVIVO-15 medium or in 4% HSA and 0,2% α-1-Acid Glycoprotein, at a ratio of one microbead per two cells. Serial dilutions of the ENT1 inhibitors were prepared in X-VIVO15 from 10 mM stock solutions in DMSO, and 50 µL was added to the wells. ATP powder was diluted in X-VIVO15, and 50 µL of this compound was added to the wells to reach a final assay concentration of 100 µM. Final volume of 200 µL. The experiments were also performed in 384 well plates - all volumes reduced by a factor of 4 (12,5 µL) with a final volume of 50 µL. Experiments were performed in duplicate. The cells were placed in a 37° C. humidified tissue culture incubator with 5% CO2 for 72 hours for 96 well plates, 96 hours for 384 well plates. After 72 or 96 hours, proliferation was measured determined by CFSE dilution via flow cytometry.", "note": "Like-named read-outs stand apart in the source and are kept apart here.", "data": [{"smiles": "COc1cc(C(=O)O[C@H]2CCCOc3cc(cc(OC)c3OC)C(=O)OCCCN3CCCN(CC2)CC3)cc(OC)c1OC", "note": "[Compound 2, (12S)-74,75-dimethoxy-6-oxo-5,8-dioxa-1(1,4)-diazepana-7(1,3)-benzenacyclotetradecaphane-12-yl 3,4,5-trimethoxybenzoate]", "values": [{"measurement": "IC50", "setting": "Condition A: X-VIVO15, read-out: T Cell proliferation (Condition A) IC50", "value": "20 to 500", "unit": "nM"}, {"measurement": "IC50", "setting": "Condition B: X-VIVO15, 2% HSA and 0,1% AAG, read-out: (2) T Cell proliferation (Condition B) IC50", "value": "20 to 500", "unit": "nM"}]}]}
